# Data reported in ChEMBL document CHEMBL1909046, “DrugMatrix in vitro pharmacology data”.
# Tests used:
# [1] = biological target: Kappa-type opioid receptor (Homo sapiens, UniProt P41145); test: DRUGMATRIX: Opiate kappa (OP2, KOP) radioligand binding (ligand: [3H] Diprenorphine); type: cell membranes, HEK293, Membrane; settings: Not Active = under 50% inhibition at 10 µM
# [2] = biological target: Voltage-gated inwardly rectifying potassium channel KCNH2 (Homo sapiens, UniProt Q12809); settings: hek293; further: in other assays of this panel Not Active means under 50% inhibition at 10 µM
# Sequence of Voltage-gated inwardly rectifying potassium channel KCNH2 (Q12809 whole entry): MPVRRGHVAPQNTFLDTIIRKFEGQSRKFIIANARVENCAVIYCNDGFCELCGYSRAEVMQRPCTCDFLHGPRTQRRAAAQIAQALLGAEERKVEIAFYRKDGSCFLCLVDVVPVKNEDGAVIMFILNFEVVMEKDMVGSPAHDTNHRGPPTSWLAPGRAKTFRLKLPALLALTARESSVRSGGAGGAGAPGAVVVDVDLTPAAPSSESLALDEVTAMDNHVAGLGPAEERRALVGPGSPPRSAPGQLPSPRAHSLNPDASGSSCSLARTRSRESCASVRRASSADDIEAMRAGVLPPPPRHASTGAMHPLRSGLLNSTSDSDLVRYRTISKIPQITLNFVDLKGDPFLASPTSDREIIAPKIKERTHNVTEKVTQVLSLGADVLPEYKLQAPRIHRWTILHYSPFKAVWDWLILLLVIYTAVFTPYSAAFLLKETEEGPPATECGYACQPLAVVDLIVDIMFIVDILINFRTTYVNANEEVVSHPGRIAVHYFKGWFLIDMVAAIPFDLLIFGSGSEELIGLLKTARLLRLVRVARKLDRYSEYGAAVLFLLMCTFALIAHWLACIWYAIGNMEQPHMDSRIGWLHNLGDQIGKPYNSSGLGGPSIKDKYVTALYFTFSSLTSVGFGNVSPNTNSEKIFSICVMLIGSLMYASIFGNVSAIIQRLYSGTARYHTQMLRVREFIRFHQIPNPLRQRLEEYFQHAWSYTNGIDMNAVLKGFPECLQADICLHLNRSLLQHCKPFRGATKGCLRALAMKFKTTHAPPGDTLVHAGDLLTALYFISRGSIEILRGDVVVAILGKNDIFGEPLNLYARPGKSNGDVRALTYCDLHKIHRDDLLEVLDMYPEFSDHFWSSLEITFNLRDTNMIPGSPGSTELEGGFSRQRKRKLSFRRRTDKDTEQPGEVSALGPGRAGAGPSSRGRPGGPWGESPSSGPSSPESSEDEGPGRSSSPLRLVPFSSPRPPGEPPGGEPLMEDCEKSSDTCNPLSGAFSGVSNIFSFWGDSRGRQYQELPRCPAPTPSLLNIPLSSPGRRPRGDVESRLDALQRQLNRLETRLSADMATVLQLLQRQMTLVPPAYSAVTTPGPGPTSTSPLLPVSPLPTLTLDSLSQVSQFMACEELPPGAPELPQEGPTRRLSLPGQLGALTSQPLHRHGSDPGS
# Estrogen receptor beta = Estrogen receptor beta (Homo sapiens, UniProt Q92731); settings: sf9; further: in other assays of this panel Not Active means under 50% inhibition at 10 µM
# Sequence of Estrogen receptor beta (Q92731 whole entry): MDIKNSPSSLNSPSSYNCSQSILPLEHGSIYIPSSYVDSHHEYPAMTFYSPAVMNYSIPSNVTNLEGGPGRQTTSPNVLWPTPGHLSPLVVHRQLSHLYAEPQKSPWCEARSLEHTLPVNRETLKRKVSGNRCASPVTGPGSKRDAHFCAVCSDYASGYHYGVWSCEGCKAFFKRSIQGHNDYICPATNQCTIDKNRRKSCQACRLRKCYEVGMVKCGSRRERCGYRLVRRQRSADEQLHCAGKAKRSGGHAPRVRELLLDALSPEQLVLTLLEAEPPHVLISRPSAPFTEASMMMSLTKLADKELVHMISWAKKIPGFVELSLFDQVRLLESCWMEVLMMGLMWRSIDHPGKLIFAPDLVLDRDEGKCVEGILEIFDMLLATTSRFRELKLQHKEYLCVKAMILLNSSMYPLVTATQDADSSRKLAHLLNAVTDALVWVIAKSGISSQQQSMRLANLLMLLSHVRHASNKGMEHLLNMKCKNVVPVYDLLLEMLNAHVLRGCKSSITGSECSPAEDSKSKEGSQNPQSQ
# Androgen receptor = biological target: T1, Androgen receptor (Rattus norvegicus, UniProt P15207); further: in other assays of this panel Not Active means under 50% inhibition at 10 µM
# T1 sequence (P15207 whole entry): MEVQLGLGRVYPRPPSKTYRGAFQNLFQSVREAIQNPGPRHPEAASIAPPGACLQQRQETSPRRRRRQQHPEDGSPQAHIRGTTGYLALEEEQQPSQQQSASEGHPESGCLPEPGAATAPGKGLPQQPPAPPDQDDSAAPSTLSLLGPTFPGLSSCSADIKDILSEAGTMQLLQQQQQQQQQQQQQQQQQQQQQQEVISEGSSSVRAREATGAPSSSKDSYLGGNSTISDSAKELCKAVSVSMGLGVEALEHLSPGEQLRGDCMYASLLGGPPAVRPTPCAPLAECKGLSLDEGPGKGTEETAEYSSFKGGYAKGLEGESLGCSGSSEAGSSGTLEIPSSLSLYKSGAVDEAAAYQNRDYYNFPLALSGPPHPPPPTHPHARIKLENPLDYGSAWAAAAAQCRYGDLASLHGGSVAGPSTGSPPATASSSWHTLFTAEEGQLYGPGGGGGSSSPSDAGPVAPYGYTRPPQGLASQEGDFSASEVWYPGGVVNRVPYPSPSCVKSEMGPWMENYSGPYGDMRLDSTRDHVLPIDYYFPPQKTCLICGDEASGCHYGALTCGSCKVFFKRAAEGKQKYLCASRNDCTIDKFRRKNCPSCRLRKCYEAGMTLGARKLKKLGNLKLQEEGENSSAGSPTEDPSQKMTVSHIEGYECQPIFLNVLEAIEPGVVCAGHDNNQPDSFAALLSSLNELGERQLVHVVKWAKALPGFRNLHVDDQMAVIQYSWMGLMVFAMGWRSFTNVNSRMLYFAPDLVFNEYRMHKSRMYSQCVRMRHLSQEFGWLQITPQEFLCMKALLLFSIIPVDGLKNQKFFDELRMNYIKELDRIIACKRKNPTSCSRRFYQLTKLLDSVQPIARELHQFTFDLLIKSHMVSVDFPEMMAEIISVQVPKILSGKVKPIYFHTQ
# Cytochrome P450 1A2 = biological target: T2, Cytochrome P450 1A2 (Homo sapiens, UniProt P05177); further: in other assays of this panel Not Active means under 50% inhibition at 10 µM
# T2 sequence (P05177 whole entry): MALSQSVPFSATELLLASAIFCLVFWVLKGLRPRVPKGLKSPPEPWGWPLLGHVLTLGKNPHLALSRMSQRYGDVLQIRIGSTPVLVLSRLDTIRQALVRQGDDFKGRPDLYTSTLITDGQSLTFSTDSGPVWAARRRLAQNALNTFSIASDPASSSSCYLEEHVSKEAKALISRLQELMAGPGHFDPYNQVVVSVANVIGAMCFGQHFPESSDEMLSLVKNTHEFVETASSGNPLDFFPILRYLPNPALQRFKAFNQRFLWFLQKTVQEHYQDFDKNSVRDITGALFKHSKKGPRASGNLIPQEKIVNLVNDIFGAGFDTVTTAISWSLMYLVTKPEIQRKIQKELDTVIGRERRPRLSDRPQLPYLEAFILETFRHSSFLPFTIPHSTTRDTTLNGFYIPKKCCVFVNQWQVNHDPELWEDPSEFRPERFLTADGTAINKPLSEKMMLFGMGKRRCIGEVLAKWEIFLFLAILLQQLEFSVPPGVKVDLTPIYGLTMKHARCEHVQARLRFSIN
# Cytochrome P450 2D6 = Cytochrome P450 2D6 (Homo sapiens, UniProt P10635); further: in other assays of this panel Not Active means under 50% inhibition at 10 µM
# Sequence of Cytochrome P450 2D6 (P10635 whole entry): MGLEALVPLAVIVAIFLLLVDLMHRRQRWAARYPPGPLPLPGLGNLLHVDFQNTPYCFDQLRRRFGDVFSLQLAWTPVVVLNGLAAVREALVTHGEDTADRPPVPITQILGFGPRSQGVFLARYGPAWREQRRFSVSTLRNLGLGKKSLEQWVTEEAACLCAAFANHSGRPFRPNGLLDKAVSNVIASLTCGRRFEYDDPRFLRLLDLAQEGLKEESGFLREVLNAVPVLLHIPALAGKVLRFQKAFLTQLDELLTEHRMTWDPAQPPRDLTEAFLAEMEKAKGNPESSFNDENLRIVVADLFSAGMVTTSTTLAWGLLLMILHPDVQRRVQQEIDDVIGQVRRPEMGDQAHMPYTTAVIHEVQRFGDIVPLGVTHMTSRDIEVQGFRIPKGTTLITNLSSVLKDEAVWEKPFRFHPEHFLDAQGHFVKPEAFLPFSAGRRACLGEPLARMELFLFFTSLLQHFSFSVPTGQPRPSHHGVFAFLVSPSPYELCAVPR
# Sequence of Kappa-type opioid receptor (P41145 whole entry): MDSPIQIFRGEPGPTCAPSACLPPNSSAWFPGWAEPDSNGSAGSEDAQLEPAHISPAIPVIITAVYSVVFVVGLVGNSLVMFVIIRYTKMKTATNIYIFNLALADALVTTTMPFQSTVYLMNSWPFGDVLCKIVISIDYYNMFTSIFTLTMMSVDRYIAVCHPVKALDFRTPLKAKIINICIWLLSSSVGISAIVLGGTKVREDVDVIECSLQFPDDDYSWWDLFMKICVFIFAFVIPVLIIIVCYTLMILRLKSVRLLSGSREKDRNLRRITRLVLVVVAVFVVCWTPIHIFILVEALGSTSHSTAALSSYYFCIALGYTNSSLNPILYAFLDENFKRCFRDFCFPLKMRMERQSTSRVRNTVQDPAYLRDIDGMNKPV
Molecule,IC50 ([1]; hek293),IC50 [2],Ki [2],IC50 (Estrogen receptor beta),other results
CC(N)C12CC3CC(CC(C3)C1)C2 (stereo unspecified) [RIMANTADINE],Not Active,Not Active,Not Active,Not Active,
CS(=O)(=O)c1ccc(C2=C(c3ccccc3)C(=O)OC2)cc1 [ROFECOXIB],Not Active,Not Active,Not Active,Not Active,
Cc1ccnc(NS(=O)(=O)c2ccc(N)cc2)n1 [SULFAMERAZINE],Not Active,Not Active,Not Active,,
OC[C@@H](O)[C@@H](O)[C@H](O)[C@H](O)CO [MANNITOL],,Not Active,Not Active,,
Oc1ccc(/C=C/c2cc(O)cc(O)c2)cc1 [RESVERATROL],,Not Active,Not Active,,IC50 (Androgen receptor): Not Active
CC1=C(/C=C/C(C)=C/C=C/C(C)=C/C(=O)O)C(C)(C)CCC1 [TRETINOIN],Not Active,,,,
C=CCc1ccc2c(c1)OCO2 [SAFROLE],Not Active,Not Active,Not Active,Not Active,IC50 (Cytochrome P450 1A2): 10 µM
CCN(CC)N=O [N-NITROSODIETHYLAMINE],,Not Active,Not Active,,
CCN1CCCC1CNC(=O)c1cc(S(N)(=O)=O)ccc1OC (stereo unspecified) [SULPIRIDE],Not Active,Not Active,Not Active,Not Active,IC50 (Androgen receptor): Not Active
O=C1CC[C@@]2(O)[C@H]3Cc4ccc(O)c5c4[C@@]2(CCN3CC2CC2)[C@H]1O5 [NALTREXONE],,Not Active,Not Active,Not Active,
C[N+]1(C)[C@@H]2C[C@@H](OC(=O)[C@H](CO)c3ccccc3)C[C@H]1[C@@H]1O[C@@H]12.[Br-] [METHSCOPOLAMINE BROMIDE],,Not Active,Not Active,,
CCN(CC)CCNC(=O)c1cc(Cl)c(N)cc1OC [METOCLOPRAMIDE],Not Active,Not Active,Not Active,Not Active,IC50 (Cytochrome P450 2D6): 0.8 µM
CN1C(=O)OC(C)(C)C1=O [TRIMETHADIONE],Not Active,Not Active,Not Active,Not Active,
Cc1cn([C@H]2C=C[C@@H](CO)O2)c(=O)[nH]c1=O [STAVUDINE],Not Active,Not Active,Not Active,Not Active,
CN1C[C@H](CNC(=O)OCc2ccccc2)C[C@@H]2c3cccc4c3c(cn4C)C[C@H]21 [METERGOLINE],Not Active,Not Active,Not Active,Not Active,
CCN(CC)C(=S)SSC(=S)N(CC)CC,,Not Active,Not Active,Not Active,Ki [1]: 2.44 µM; IC50 ([1]; read-out: IC50): 6.1 µM; IC50 (Androgen receptor): Not Active; IC50 (Cytochrome P450 1A2): 4 µM
CC(C)(C)NC[C@H](O)COc1cccc2c1CCCC2=O [LEVOBUNOLOL],Not Active,Not Active,Not Active,Not Active,
Cc1ccc(S(=O)(=O)NC(=O)NN2CCCCCC2)cc1 [TOLAZAMIDE],Not Active,Not Active,Not Active,Not Active,
Cc1ccc(Cl)c(Nc2ccccc2C(=O)O)c1Cl [MECLOFENAMIC ACID],Not Active,Not Active,Not Active,Not Active,
CO[C@@H]1[C@@H](OC)[C@H](C)[C@@](O)(CC(=O)O)O[C@H]1[C@H](C)[C@H]1O[C@@]2(CC[C@@](C)([C@H]3CC[C@@](C)([C@@H]4O[C@@H]([C@H]5O[C@](C)(O)[C@H](C)C[C@@H]5C)C[C@@H]4O[C@@H]4C[C@H](OC)[C@@H](OC)[C@H](C)O4)O3)O2)C[C@H](O)[C@H]1C.N [MADURAMICIN],Not Active,Not Active,Not Active,,
CCC(C)(C)C(=O)O[C@H]1C[C@@H](C)C=C2C=C[C@H](C)[C@H](CC[C@@H]3C[C@@H](O)CC(=O)O3)[C@H]21 [SIMVASTATIN],Not Active,,,Not Active,

Molecule,IC50 ([1]; hek293),IC50 [2],Ki [2],IC50 (Estrogen receptor beta),other results
CN(C)CCC=C1c2ccccc2COc2ccccc21 [DOXEPIN],Not Active,Not Active,Not Active,,IC50 (Androgen receptor): Not Active
Cc1nnc(NS(=O)(=O)c2ccc(N)cc2)s1 [SULFAMETHIZOLE],Not Active,Not Active,Not Active,,IC50 (Androgen receptor): Not Active
C[C@]12CCC(=O)C[C@@H]1CC[C@@H]1[C@@H]2CC[C@]2(C)[C@@H](O)CC[C@@H]12 [STANOLONE],Not Active,Not Active,Not Active,Not Active,
CO[C@@]12[C@H](COC(N)=O)C3=C(C(=O)C(C)=C(N)C3=O)N1C[C@@H]1N[C@@H]12 [MITOMYCIN],Not Active,Not Active,Not Active,Not Active,
Cc1[nH]c(=O)c(C#N)cc1-c1ccncc1 [MILRINONE],Not Active,,,Not Active,
CC(Cl)(Cl)Cl [TRICHLOROETHANE],,Not Active,Not Active,,
CC[C@H](C)C(=O)O[C@H]1CCC=C2C=C[C@H](C)[C@H](CC[C@@H]3C[C@@H](O)CC(=O)O3)[C@H]21 [MEVASTATIN],Not Active,,,Not Active,IC50 (Androgen receptor): Not Active
CC(=O)O[C@]1(C(C)=O)CC[C@H]2[C@@H]3C[C@H](C)C4=CC(=O)CC[C@]4(C)[C@H]3CC[C@@]21C [MEDROXYPROGESTERONE ACETATE],Not Active,Not Active,Not Active,,
CC[C@@]1(O)C(=O)OCc2c1cc1n(c2=O)Cc2cc3c(CN(C)C)c(O)ccc3nc2-1 [TOPOTECAN],Not Active,Not Active,Not Active,Not Active,
CC#C[C@]1(O)CC[C@H]2[C@@H]3CCC4=CC(=O)CCC4=C3[C@@H](c3ccc(N(C)C)cc3)C[C@@]21C [MIFEPRISTONE],,,,Not Active,Ki [1]: 8.04 µM; IC50 ([1]; read-out: IC50): 20.1 µM
Cc1cnc(NC(=O)C2=C(O)c3ccccc3S(=O)(=O)N2C)s1 [MELOXICAM],Not Active,Not Active,Not Active,Not Active,
O=[As][O-].[Na+] [SODIUM ARSENITE],,Not Active,Not Active,Not Active,IC50 (Androgen receptor): Not Active
Cc1cccc(C)c1NC(=O)C(C)N (stereo unspecified) [TOCAINIDE],Not Active,Not Active,Not Active,Not Active,
COC(=O)Nc1nc2ccc(C(=O)c3ccccc3)cc2[nH]1 [MEBENDAZOLE],Not Active,Not Active,Not Active,,IC50 (Androgen receptor): Not Active
CNCCCC12CCC(c3ccccc31)c1ccccc12 [MAPROTILINE],Not Active,Not Active,Not Active,Not Active,
O=C(c1ccccc1)c1ccc2n1CCC2C(=O)O (stereo unspecified) [KETOROLAC],Not Active,Not Active,Not Active,,
O=C(O)c1cc(/N=N/c2ccc(S(=O)(=O)Nc3ccccn3)cc2)ccc1O [SULFASALAZINE],Not Active,Not Active,Not Active,Not Active,
CC1(C)[C@H](C(=O)O)N2C(=O)C[C@H]2S1(=O)=O [SULBACTAM],Not Active,Not Active,Not Active,Not Active,
C1CCN2C[C@@H]3C[C@@H](CN4CCCC[C@@H]34)[C@H]2C1 [SPARTEINE],,Not Active,Not Active,Not Active,
LEAD(IV) ACETATE,,Not Active,Not Active,Not Active,IC50 (Androgen receptor): Not Active; Ki (Androgen receptor): Not Active; Ki (Estrogen receptor beta): Not Active
CC(O)C(=O)O (stereo unspecified) [LACTIC ACID],Not Active,Not Active,Not Active,,
